This note sets out measurements from paper PMC8280112, “Substrate reduction therapy for Krabbe disease and metachromatic leukodystrophy using a novel ceramide galactosyltransferase inhibitor” (Scientific Reports, 2021).

In assay [1] the target is T1, UGT1A (Homo sapiens, UniProt P22309).
T1 construct: purchased Eurofins Panlabs Taiwan, Ltd. ITEM 196000
T1 sequence (P22309 26-533): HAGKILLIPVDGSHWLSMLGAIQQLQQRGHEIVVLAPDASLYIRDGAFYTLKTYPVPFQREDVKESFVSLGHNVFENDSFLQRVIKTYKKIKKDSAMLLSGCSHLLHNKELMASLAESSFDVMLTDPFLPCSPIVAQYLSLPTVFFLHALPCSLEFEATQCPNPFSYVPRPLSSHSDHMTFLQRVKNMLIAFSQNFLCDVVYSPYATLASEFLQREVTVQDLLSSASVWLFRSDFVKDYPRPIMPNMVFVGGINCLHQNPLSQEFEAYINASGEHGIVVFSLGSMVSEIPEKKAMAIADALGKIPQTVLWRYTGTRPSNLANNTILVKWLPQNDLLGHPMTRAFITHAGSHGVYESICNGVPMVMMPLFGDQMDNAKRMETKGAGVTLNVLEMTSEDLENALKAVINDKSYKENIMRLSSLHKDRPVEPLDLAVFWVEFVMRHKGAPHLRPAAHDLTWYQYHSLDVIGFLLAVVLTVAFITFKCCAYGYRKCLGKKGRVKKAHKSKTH
The assay is described as follows: UDP glucuronosyltransferase assay (Eurofins Panlabs). Type of assay: biochemical. As for the experimental part: UGT1A activity was evaluated at Eurofins Panlabs Taiwan, Ltd. ITEM 196000.

In assay [2] the test system is Twitcher mice. The assay is described as follows: Twitcher mouse survival. Type of assay: in vivo. The note with it: for median survival: IP three times per week. The method, then:
Mice heterozygous for the Twitcher mutation on the congenic C57BL/6 background were originally purchased from The Jackson Laboratories (stock #000845). Homozygous GALC −/− animals were generated from heterozygous mating. Genotypes were determined on PND1 by PCR as previously described[43],[44]. Animals that died prior to weaning on PND28 were excluded from the study unless otherwise noted. Animals were euthanized when they became moribund as defined by any of the following: losing 25% of their maximal body weight, ataxia severe enough to impair ability to eat or drink, or lack of response to tactile stimulus. Animals used for tissue collection were euthanized by anesthetic overdose and perfused transcardially with PBS for three min. Animals for lifespan analysis were euthanized using CO2 compressed gas delivered at 10–30% chamber volume displacement per min. […] Tissues were harvested and flash frozen in liquid nitrogen.

For assay [3], the target named is T2, Recombinant human glucosylceramidase (GBA1) (Homo sapiens, UniProt P04062).
T2 construct: purchased R&D Systems
T2 sequence (P04062 40-536): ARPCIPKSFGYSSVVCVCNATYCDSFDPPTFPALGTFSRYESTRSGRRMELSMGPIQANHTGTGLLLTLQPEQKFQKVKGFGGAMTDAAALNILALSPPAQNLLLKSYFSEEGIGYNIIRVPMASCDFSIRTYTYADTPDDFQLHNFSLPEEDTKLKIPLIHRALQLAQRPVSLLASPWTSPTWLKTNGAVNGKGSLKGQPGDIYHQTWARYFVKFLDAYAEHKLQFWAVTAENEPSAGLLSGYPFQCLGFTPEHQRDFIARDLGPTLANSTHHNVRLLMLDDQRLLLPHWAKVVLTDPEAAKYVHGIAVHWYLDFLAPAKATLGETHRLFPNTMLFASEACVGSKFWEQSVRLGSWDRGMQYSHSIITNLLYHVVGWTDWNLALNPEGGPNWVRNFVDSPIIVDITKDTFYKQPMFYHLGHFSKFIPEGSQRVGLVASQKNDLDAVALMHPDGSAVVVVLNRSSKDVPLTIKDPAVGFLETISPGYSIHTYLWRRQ
The assay is described as follows: Beta-glucocerebrosidase assay. Format: biochemical.

For assay [4], the target named is T3, Recombinant human galactosylceramidase (GALC) (Homo sapiens, UniProt P54803).
T3 construct: purchased R&D Systems
T3 sequence (P54803 43-685): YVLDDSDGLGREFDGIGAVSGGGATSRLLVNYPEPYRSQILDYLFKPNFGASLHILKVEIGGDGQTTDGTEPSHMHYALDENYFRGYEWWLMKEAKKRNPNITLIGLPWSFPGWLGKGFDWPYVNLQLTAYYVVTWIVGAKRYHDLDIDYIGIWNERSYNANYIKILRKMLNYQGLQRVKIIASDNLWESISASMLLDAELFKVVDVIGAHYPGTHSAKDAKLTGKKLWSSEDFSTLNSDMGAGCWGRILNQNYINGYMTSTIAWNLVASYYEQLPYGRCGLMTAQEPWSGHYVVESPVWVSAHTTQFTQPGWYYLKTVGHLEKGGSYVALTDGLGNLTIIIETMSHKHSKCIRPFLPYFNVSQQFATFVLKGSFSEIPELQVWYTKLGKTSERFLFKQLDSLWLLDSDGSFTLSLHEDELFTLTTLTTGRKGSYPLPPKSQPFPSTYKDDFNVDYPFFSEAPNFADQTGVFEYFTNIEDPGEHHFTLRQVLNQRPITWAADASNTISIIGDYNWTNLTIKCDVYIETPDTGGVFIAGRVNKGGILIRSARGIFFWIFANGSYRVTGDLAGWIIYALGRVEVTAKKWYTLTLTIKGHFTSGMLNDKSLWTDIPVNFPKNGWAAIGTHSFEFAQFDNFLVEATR
The assay is described as follows: Galactosylceramidase assay. Format: biochemical. The source says:
Recombinant human galactosylceramidase (R&D Systems) activity was monitored using the artificial fluorescent substrate 4-methylumbelliferyl-β-D-galactopyranoside (Sigma) using the assay conditions described on the enzyme product datasheet.

Where only a bound is given, the exact number is not on record here.

As usually defined, the IC50 is the point on the concentration scale where inhibition reaches its midpoint. Regarding `C[C@H]1N(c2ccc(Br)cc2)C(=O)N(c2ccc(Br)cc2)C1(O)c1cccc(OC(F)(F)F)c1` (stereo partly drawn) [S202], the results for the IC50 in assay [1], in assay [3] and in assay [4] were > 30 µM, > 50 µM and > 50 µM, respectively. Moreover, the median survival in assay [2] (PND3 start, 0.15 mg/kg) is 60 days; in assay [2] (PND15 start, 5.0 mg/kg), ~ 63 days. Besides, in assay [2] (PND3 start, highest dose tested (1.5 mg/kg)), the effect on lifespan result was “reduced lifespan”.
